Earlier results, collected in patent US10955416B2, “Compositions for detecting mutant anaplastic lymphoma kinase in human lung cancer” (CELL SIGNALING TECHNOLOGY, INC., priority 2006, dated 2021).

Tested on: lymphoma cells
Details: Marzec et al., Lab. Invest. 85(12): 1544-54 (2005); cited from earlier work

Row | Compound | apoptosis in lymphoma cells | proliferation in lymphoma cells
1 | COc1cc2ncnc(Nc3ccc(O)cc3)c2cc1OC [WHI-131] | induce apoptosis | suppress proliferation
2 | COc1cc2ncnc(Nc3ccc(O)c(Br)c3)c2cc1OC [WHI-154] | induce apoptosis | suppress proliferation
